Data taken from the supplement of paper PMC10307832.

Legend:
Assay in all cases: relative viability (nuclei count vs DMSO), 5 days (fraction); higher = more cells survive
IU1-47 + Alpelisib = compound: CC1=CC(=C(N1C2=CC=C(C=C2)Cl)C)C(=O)CN3CCCCC3 [IU1-47] + Cc1nc(NC(=O)N2CCC[C@H]2C(N)=O)sc1-c1ccnc(C(C)(C)C(F)(F)F)c1 [Alpelisib] (partner 2 µM)
How it was run: (§1)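 Lung cancer cell lines, seeded in 1536-well plates, were treated the following day by pin tool with a single drug or with five library-drug doses (not always all listed) in √10 steps on top of a fixed anchor-drug dose. Cells were fixed and nuclei stained in one step after 5 days, and nuclei were counted. Relative viability is the nuclei count for treated wells divided by that for vehicle wells, reported as medians of duplicate plates.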

IU1-47 + Dasatinib = compound: CC1=CC(=C(N1C2=CC=C(C=C2)Cl)C)C(=O)CN3CCCCC3 [IU1-47] + Cc1nc(Nc2ncc(C(=O)Nc3c(C)cccc3Cl)s2)cc(N2CCN(CCO)CC2)n1 [Dasatinib] (partner 0.075 µM)
How it was run: as §1

FG-4592 + Foretinib = compound: Cc1nc(C(=O)NCC(=O)O)c(O)c2ccc(Oc3ccccc3)cc12 [FG-4592] + COc1cc2c(Oc3ccc(NC(=O)C4(C(=O)Nc5ccc(F)cc5)CC4)cc3F)ccnc2cc1OCCCN1CCOCC1 [Foretinib] (partner 0.25 µM)
How it was run: as §1

FG-4592 + Phenformin = compound: Cc1nc(C(=O)NCC(=O)O)c(O)c2ccc(Oc3ccccc3)cc12 [FG-4592] + N=C(N)NC(=N)NCCc1ccccc1 [Phenformin] (partner 250 µM)
How it was run: as §1

| Cell Line | relative viability (IU1-47 + Alpelisib; first compound 0.08 µM) | relative viability (IU1-47 + Alpelisib; first compound 0.253 µM) | relative viability (IU1-47 + Alpelisib; first compound 0.8 µM) | relative viability (IU1-47 + Alpelisib; first compound 8 µM) | relative viability (IU1-47 + Dasatinib; first compound 0.08 µM) | relative viability (IU1-47 + Dasatinib; first compound 0.253 µM) | relative viability (IU1-47 + Dasatinib; first compound 0.8 µM) | relative viability (IU1-47 + Dasatinib; first compound 2.53 µM) | relative viability (IU1-47 + Dasatinib; first compound 8 µM) | relative viability (FG-4592 + Foretinib; first compound 0.08 µM) | relative viability (FG-4592 + Foretinib; first compound 0.253 µM) | relative viability (FG-4592 + Foretinib; first compound 0.8 µM) | relative viability (FG-4592 + Foretinib; first compound 2.53 µM) | relative viability (FG-4592 + Foretinib; first compound 8 µM) | relative viability (FG-4592 + Phenformin; first compound 0.08 µM) | relative viability (FG-4592 + Phenformin; first compound 0.253 µM) | relative viability (FG-4592 + Phenformin; first compound 0.8 µM) | relative viability (FG-4592 + Phenformin; first compound 2.53 µM) | relative viability (FG-4592 + Phenformin; first compound 8 µM) | relative viability (IU1-47 + Alpelisib; first compound 2.53 µM) |
| --- | --- | --- | --- | --- | --- | --- | --- | --- | --- | --- | --- | --- | --- | --- | --- | --- | --- | --- | --- | --- |
| NCI-H1651 | 1.05 | 1.1 | 0.899 | 0.597 | 0.325 | 0.412 | 0.454 | 0.414 | 0.39 | 0.863 | 0.773 | 0.88 | 0.901 | 0.839 | 0.32 | 0.316 | 0.335 | 0.355 | 0.421 |  |
| NCI-H1666 | 0.882 | 0.903 | 0.812 | 0.836 | 0.79 | 0.806 | 0.761 | 0.793 | 0.676 | 0.907 | 0.865 | 0.939 | 0.963 | 0.837 | 0.611 | 0.518 | 0.613 | 0.377 | 0.562 | 1.03 |
| NCI-H1734 | 0.645 | 0.714 | 0.65 | 0.708 | 0.493 | 0.531 | 0.461 |  | 0.406 | 0.792 | 0.812 | 0.806 | 0.884 | 0.75 | 0.398 | 0.387 | 0.343 | 0.377 | 0.354 |  |
| NCI-H1755 | 1.04 | 1.03 | 1.03 | 0.8 | 0.455 | 0.528 | 0.426 | 0.409 | 0.36 | 0.907 | 0.905 | 0.857 | 0.929 | 0.921 | 0.588 | 0.566 | 0.556 | 0.581 | 0.627 | 0.978 |
| NCI-H1793 | 0.83 | 0.683 | 0.901 | 0.665 | 0.458 | 0.298 | 0.403 |  | 0.409 | 0.739 | 0.71 |  | 0.593 | 0.554 | 0.357 | 0.273 |  | 0.307 | 0.36 |  |
| NCI-H1915 | 1.07 | 1.11 | 1.13 | 1.07 | 0.318 | 0.3 | 0.334 |  | 0.306 | 1.09 | 1.06 | 1.22 | 1.12 | 1 | 0.327 | 0.362 | 0.387 | 0.354 | 0.398 |  |
| NCI-H1944 | 0.853 | 0.886 | 0.903 | 0.847 | 0.213 | 0.214 | 0.204 | 0.2 | 0.203 | 0.928 | 0.816 | 0.941 | 0.85 | 0.934 | 0.194 | 0.187 | 0.185 | 0.18 | 0.2 |  |
| NCI-H1975 | 0.684 | 0.619 | 0.708 | 0.444 | 0.329 | 0.343 | 0.372 | 0.318 | 0.361 | 0.986 | 0.949 | 1.07 | 0.956 | 0.833 | 0.384 | 0.399 | 0.369 | 0.384 | 0.396 | 0.659 |
| NCI-H1993 | 0.753 | 0.728 | 0.657 | 0.594 | 0.497 | 0.732 | 0.651 | 0.548 | 0.571 | 0.783 | 0.582 | 0.781 | 0.828 | 0.747 | 0.513 | 0.427 | 0.5 | 0.421 | 0.507 | 0.725 |
